According to ChEMBL document CHEMBL5321262, “Antiviral Activity of Cannabidiolic Acid and Its Methyl Ester against SARS-CoV-2” (J Nat Prod, 2023):
Calls of active or inactive are those of the source. No cut-off for these calls is given here.

Experiments:
SARS-CoV-2 [1] = test: Antiviral activity against SARS-CoV-2 variant Delta infected in African green monkey Vero E6 cells assessed as reduction in virus-induced cytopathic effect preincubated with virus for 1 hr followed by infection with cells and measured after 72 hrs by microscopic analysis; format: functional, organism-based; conditions: Severe acute respiratory syndrome coronavirus 2, time 73.0 hrs
SARS-CoV-2 [2] = test: Antiviral activity against SARS-CoV-2 variant Omicron BA.1 infected in African green monkey Vero E6 cells assessed as reduction in virus-induced cytopathic effect preincubated with virus for 1 hr followed by infection with cells and measured after 72 hrs by microscopic analysis; format: functional, organism-based; conditions: Severe acute respiratory syndrome coronavirus 2, time 73.0 hrs
SARS-CoV-2 [3] = test: Antiviral activity against SARS-CoV-2 variant Omicron BA.2 infected in African green monkey Vero E6 cells assessed as reduction in virus-induced cytopathic effect preincubated with virus for 1 hr followed by infection with cells and measured after 72 hrs by microscopic analysis; format: functional, organism-based; conditions: Severe acute respiratory syndrome coronavirus 2, time 73.0 hrs
SARS-CoV-2 [4] = test: Antiviral activity against SARS-CoV-2 variant Omicron BA.3 infected African green monkey Vero E6 cells assessed as reduction in virus-induced cytopathic effect preincubated with virus for 1 hr followed by infection with cells and measured after 72 hrs by microscopic analysis; format: functional, organism-based; conditions: Severe acute respiratory syndrome coronavirus 2, time 73.0 hrs
SARS-CoV-2 [5] = test: Antiviral activity against SARS-CoV-2 variant Omicron BA.4 infected African green monkey Vero E6 cells assessed as reduction in virus-induced cytopathic effect preincubated with virus for 1 hr followed by infection with cells and measured after 72 hrs by microscopic analysis; format: functional, organism-based; conditions: Severe acute respiratory syndrome coronavirus 2, time 73.0 hrs
SARS-CoV-2 [6] = test: Antiviral activity against SARS-CoV-2 variant Omicron BA.5 infected African green monkey Vero E6 cells assessed as reduction in virus-induced cytopathic effect preincubated with virus for 1 hr followed by infection with cells and measured after 72 hrs by microscopic analysis; format: functional, organism-based; conditions: Severe acute respiratory syndrome coronavirus 2, time 73.0 hrs
SARS-CoV-2 [7] = test: Antiviral activity against SARS-CoV-2 variant Omicron BA.5 infected in African green monkey Vero E6 cells assessed as reduction in virus titers of progeny virus in supernatant measured after 72 hrs by CPE assay; format: functional, organism-based; conditions: Severe acute respiratory syndrome coronavirus 2, Omicron BA.5, Vero C1008, 72 h
SARS-CoV-2 [8] = test: Antiviral activity against SARS-CoV-2 variant Omicron BA.4 infected in African green monkey Vero E6 cells assessed as reduction in virus titers of progeny virus in supernatant measured after 72 hrs by CPE assay; format: functional, organism-based; conditions: Severe acute respiratory syndrome coronavirus 2, Omicron BA.4, Vero C1008, 72 h
SARS-CoV-2 [9] = test: Antiviral activity against SARS-CoV-2 variant Omicron BA.3 infected in African green monkey Vero E6 cells assessed as reduction in virus titers of progeny virus in supernatant measured after 72 hrs by CPE assay; format: functional, organism-based; conditions: Severe acute respiratory syndrome coronavirus 2, Omicron BA.3, Vero C1008, 72 h
SARS-CoV-2 [10] = test: Antiviral activity against SARS-CoV-2 variant Omicron BA.2 infected in African green monkey Vero E6 cells assessed as reduction in virus titers of progeny virus in supernatant measured after 72 hrs by CPE assay; format: functional, organism-based; conditions: Severe acute respiratory syndrome coronavirus 2, Omicron BA.2, Vero C1008, 72 h
SARS-CoV-2 [11] = test: Antiviral activity against SARS-CoV-2 variant Omicron BA.1 infected in African green monkey Vero E6 cells assessed as reduction in virus titers of progeny virus in supernatant measured after 72 hrs by CPE assay; format: functional, organism-based; conditions: Severe acute respiratory syndrome coronavirus 2, Omicron BA.1, Vero C1008, 72 h
SARS-CoV-2 [12] = test: Antiviral activity against SARS-CoV-2 variant Delta infected in African green monkey Vero E6 cells assessed as reduction in virus titers of progeny virus in supernatant measured after 72 hrs by CPE assay; format: functional, organism-based; conditions: Severe acute respiratory syndrome coronavirus 2, Delta, Vero C1008, 72 h
SARS-CoV-2 [13] = test: Antiviral activity against SARS-CoV-2 variant Delta infected in African green monkey Vero E6 cells assessed as reduction in virus-induced cytopathic effect at 75 uM preincubated with virus for 1 hr followed by infection with cells and measured after 72 hrs by microscopic analysis; format: functional, organism-based; conditions: Severe acute respiratory syndrome coronavirus 2, time 73.0 hrs
SARS-CoV-2 [14] = test: Antiviral activity against SARS-CoV-2 variant Omicron BA.1 infected in African green monkey Vero E6 cells assessed as reduction in virus-induced cytopathic effect at 75 uM preincubated with virus for 1 hr followed by infection with cells and measured after 72 hrs by microscopic analysis; format: functional, organism-based; conditions: Severe acute respiratory syndrome coronavirus 2, time 73.0 hrs
SARS-CoV-2 [15] = test: Antiviral activity against SARS-CoV-2 variant Omicron BA.2 infected in African green monkey Vero E6 cells assessed as reduction in virus-induced cytopathic effect at 75 uM preincubated with virus for 1 hr followed by infection with cells and measured after 72 hrs by microscopic analysis; format: functional, organism-based; conditions: Severe acute respiratory syndrome coronavirus 2, time 73.0 hrs
SARS-CoV-2 [16] = test: Antiviral activity against SARS-CoV-2 variant Omicron BA.3 infected African green monkey Vero E6 cells assessed as reduction in virus-induced cytopathic effect at 75 uM preincubated with virus for 1 hr followed by infection with cells and measured after 72 hrs by microscopic analysis; format: functional, organism-based; conditions: Severe acute respiratory syndrome coronavirus 2, time 73.0 hrs
SARS-CoV-2 [17] = test: Antiviral activity against SARS-CoV-2 variant Omicron BA.4 infected African green monkey Vero E6 cells assessed as reduction in virus-induced cytopathic effect at 75 uM preincubated with virus for 1 hr followed by infection with cells and measured after 72 hrs by microscopic analysis; format: functional, organism-based; conditions: Severe acute respiratory syndrome coronavirus 2, time 73.0 hrs
SARS-CoV-2 [18] = test: Antiviral activity against SARS-CoV-2 variant Omicron BA.5 infected African green monkey Vero E6 cells assessed as reduction in virus-induced cytopathic effect at 75 uM preincubated with virus for 1 hr followed by infection with cells and measured after 72 hrs by microscopic analysis; format: functional, organism-based; conditions: Severe acute respiratory syndrome coronavirus 2, time 73.0 hrs
SARS-CoV-2 [19] = test: Antiviral activity against SARS-CoV-2 variant Delta infected in African green monkey Vero E6 cells assessed as inhibition of virus titers of progeny virus in supernatant at 75 uM measured after 72 hrs by CPE assay relative to control; format: functional; conditions: Severe acute respiratory syndrome coronavirus 2, Delta, Vero C1008
SARS-CoV-2 [20] = test: Antiviral activity against SARS-CoV-2 variant Omicron BA.1 infected in African green monkey Vero E6 cells assessed as inhibition of virus titers of progeny virus in supernatant at 75 uM measured after 72 hrs by CPE assay relative to control; format: functional; conditions: Severe acute respiratory syndrome coronavirus 2, Omicron BA.1, Vero C1008
SARS-CoV-2 [21] = test: Antiviral activity against SARS-CoV-2 variant Omicron BA.2 infected in African green monkey Vero E6 cells assessed as inhibition of virus titers of progeny virus in supernatant at 75 uM measured after 72 hrs by CPE assay relative to control; format: functional; conditions: Severe acute respiratory syndrome coronavirus 2, Omicron BA.2, Vero C1008
SARS-CoV-2 [22] = test: Antiviral activity against SARS-CoV-2 variant Omicron BA.3 infected in African green monkey Vero E6 cells assessed as inhibition of virus titers of progeny virus in supernatant at 75 uM measured after 72 hrs by CPE assay relative to control; format: functional; conditions: Severe acute respiratory syndrome coronavirus 2, Omicron BA.3, Vero C1008
SARS-CoV-2 [23] = test: Antiviral activity against SARS-CoV-2 variant Omicron BA.4 infected in African green monkey Vero E6 cells assessed as inhibition of virus titers of progeny virus in supernatant at 75 uM measured after 72 hrs by CPE assay relative to control; format: functional; conditions: Severe acute respiratory syndrome coronavirus 2, Omicron BA.4, Vero C1008
SARS-CoV-2 [24] = test: Antiviral activity against SARS-CoV-2 variant Omicron BA.5 infected in African green monkey Vero E6 cells assessed as inhibition of virus titers of progeny virus in supernatant at 75 uM measured after 72 hrs by CPE assay relative to control; format: functional; conditions: Severe acute respiratory syndrome coronavirus 2, Omicron BA.5, Vero C1008
SARS-CoV-2 [25] = test: Antiviral activity against SARS-CoV-2 variant Delta infected in African green monkey Vero E6 cells assessed as reduction in viral replication at 75 uM measured at 72 hrs post-infection by qRT-PCR analysis; format: functional, organism-based; conditions: Severe acute respiratory syndrome coronavirus 2
SARS-CoV-2 [26] = test: Antiviral activity against SARS-CoV-2 variant Omicron BA.1 infected in African green monkey Vero E6 cells assessed as reduction in viral replication at 75 uM measured at 72 hrs post-infection by qRT-PCR analysis; format: functional, organism-based; conditions: Severe acute respiratory syndrome coronavirus 2
SARS-CoV-2 [27] = test: Antiviral activity against SARS-CoV-2 variant Omicron BA.2 infected in African green monkey Vero E6 cells assessed as reduction in viral replication at 75 uM measured at 72 hrs post-infection by qRT-PCR analysis; format: functional, organism-based; conditions: Severe acute respiratory syndrome coronavirus 2
SARS-CoV-2 [28] = test: Antiviral activity against SARS-CoV-2 variant Omicron BA.3 infected in African green monkey Vero E6 cells assessed as reduction in viral replication at 75 uM measured at 72 hrs post-infection by qRT-PCR analysis; format: functional, organism-based; conditions: Severe acute respiratory syndrome coronavirus 2
SARS-CoV-2 [29] = test: Antiviral activity against SARS-CoV-2 variant Omicron BA.4 infected in African green monkey Vero E6 cells assessed as reduction in viral replication at 75 uM measured at 72 hrs post-infection by qRT-PCR analysis; format: functional, organism-based; conditions: Severe acute respiratory syndrome coronavirus 2
SARS-CoV-2 [30] = test: Antiviral activity against SARS-CoV-2 variant Omicron BA.5 infected in African green monkey Vero E6 cells assessed as reduction in viral replication at 75 uM measured at 72 hrs post-infection by qRT-PCR analysis; format: functional, organism-based; conditions: Severe acute respiratory syndrome coronavirus 2

CCCCCc1cc(O)c(C/C=C(\C)CCC=C(C)C)c(O)c1 [CANNABIGEROL]
Activity (SARS-CoV-2 [1]): inactive | Activity (SARS-CoV-2 [2]): inactive | Activity (SARS-CoV-2 [3]): inactive | Activity (SARS-CoV-2 [4]): inactive | Activity (SARS-CoV-2 [5]): inactive | Activity (SARS-CoV-2 [6]): inactive

C=C(C)[C@@H]1CCC(C)=C[C@H]1c1c(O)cc(CCCCC)c(C(=O)O)c1O [CANNABIDIOLIC ACID]
IC50 (SARS-CoV-2 [7]): 47.5 µM | IC50 (SARS-CoV-2 [8]): 47.7 µM | IC50 (SARS-CoV-2 [9]): 31.7 µM | IC50 (SARS-CoV-2 [10]): 35.1 µM | IC50 (SARS-CoV-2 [11]): 45.4 µM | IC50 (SARS-CoV-2 [12]): 30.7 µM | Activity (SARS-CoV-2 [13]): Active | Activity (SARS-CoV-2 [14]): Active | Activity (SARS-CoV-2 [15]): Active | Activity (SARS-CoV-2 [16]): Active | Activity (SARS-CoV-2 [17]): Active | Activity (SARS-CoV-2 [18]): Active | inhibition at 75 µM (SARS-CoV-2 [19]): > 90% | inhibition at 75 µM (SARS-CoV-2 [20]): > 90% | inhibition at 75 µM (SARS-CoV-2 [21]): > 90% | inhibition at 75 µM (SARS-CoV-2 [22]): > 90% | inhibition at 75 µM (SARS-CoV-2 [23]): > 90% | inhibition at 75 µM (SARS-CoV-2 [24]): > 90% | Activity (SARS-CoV-2 [25]): Active | Activity (SARS-CoV-2 [26]): Active | Activity (SARS-CoV-2 [27]): Active | Activity (SARS-CoV-2 [28]): Active | Activity (SARS-CoV-2 [29]): Active | Activity (SARS-CoV-2 [30]): Active

CCCCCc1cc(O)c2c(c1)OC(C)(CCC=C(C)C)C=C2 (stereo not given) [CANNABICHROMENE]
Activity (SARS-CoV-2 [1]): inactive | Activity (SARS-CoV-2 [2]): inactive | Activity (SARS-CoV-2 [3]): inactive | Activity (SARS-CoV-2 [4]): inactive | Activity (SARS-CoV-2 [5]): inactive | Activity (SARS-CoV-2 [6]): inactive

CCCc1cc(O)c(C/C=C(\C)CCC=C(C)C)c(O)c1
Activity (SARS-CoV-2 [1]): inactive | Activity (SARS-CoV-2 [2]): inactive | Activity (SARS-CoV-2 [3]): inactive | Activity (SARS-CoV-2 [4]): inactive | Activity (SARS-CoV-2 [5]): inactive | Activity (SARS-CoV-2 [6]): inactive

C=C(C)[C@@H]1CCC(C)=C[C@H]1c1c(O)cc(CCC)cc1O [CANNABIDIVARIN]
Activity (SARS-CoV-2 [1]): inactive | Activity (SARS-CoV-2 [2]): inactive | Activity (SARS-CoV-2 [3]): inactive | Activity (SARS-CoV-2 [4]): inactive | Activity (SARS-CoV-2 [5]): inactive | Activity (SARS-CoV-2 [6]): inactive

C=C(C)[C@@H]1CCC(C)=C[C@H]1c1c(O)cc(CCCCC)cc1O [CANNABIDIOL]
Activity (SARS-CoV-2 [1]): inactive | Activity (SARS-CoV-2 [2]): inactive | Activity (SARS-CoV-2 [3]): inactive | Activity (SARS-CoV-2 [4]): inactive | Activity (SARS-CoV-2 [5]): inactive | Activity (SARS-CoV-2 [6]): inactive

CCCCCc1cc(O)c(C/C=C(\C)CCC=C(C)C)c(O)c1C(=O)O [CANNABIGEROLIC ACID]
Activity (SARS-CoV-2 [1]): inactive | Activity (SARS-CoV-2 [2]): inactive | Activity (SARS-CoV-2 [3]): inactive | Activity (SARS-CoV-2 [4]): inactive | Activity (SARS-CoV-2 [5]): inactive | Activity (SARS-CoV-2 [6]): inactive
